Results published in PMC8480901 (PLoS ONE, 2021).
Several values for one entry are separate records, joined by “and”; a condition that tells them apart may be missing. Equal entries are not always repeated.

Test system: J774.2 mouse macrophages
Test: LPS-induced cytokine and chemokine levels in J774.2 mouse macrophage cell supernatant (ELISA)
Assay type: cell-based
Details: for CXCL1 % reduction / CXCL1 [pg/mL] Mean / CXCL2 % reduction / CXCL2 [pg/mL] Mean / MMP9 % reduction / MMP9 [pg/mL] Mean / CXCL2 / MMP9: J774.2 cells; for CXCL1 % reduction / CXCL1 [pg/mL] Mean / CXCL2 % reduction / CXCL2 [pg/mL] Mean / MMP9 % reduction / MMP9 [pg/mL] Mean / CCl2, % reduction / CCl2, Mean / IL-1β % reduction / IL-6 % reduction / TNF-α % reduction / TNF-α Mean / CCl2 / CXCL1 / TNF-α / CXCL2 / MMP9: LPS; for CCl2, % reduction / CCl2, Mean / IL-1β % reduction / IL-6 % reduction / TNF-α % reduction / TNF-α Mean / CCl2 / CXCL1 / TNF-α: J774.2 supernatant; for CCl2 / CXCL1 / TNF-α / CXCL2 / MMP9: individual replicate

SMILES: C[C@@H]1C[C@H]2[C@@H]3CCC4=CC(=O)C=C[C@]4(C)[C@@]3(F)[C@@H](O)C[C@]2(C)[C@@]1(O)C(=O)CO [Dexamethasone]
- CXCL1 % reduction (compound 0.0003 µM): -75%
- CXCL1 [pg/mL] Mean (compound 0.0003 µM): 45 pg/mL
- CXCL2 % reduction (compound 0.0003 µM): 24%
- CXCL2 [pg/mL] Mean (compound 0.0003 µM): 24934 pg/mL
- MMP9 % reduction (compound 0.0003 µM): 2.49%
- MMP9 [pg/mL] Mean (compound 0.0003 µM): 941 pg/mL
- CXCL1 % reduction (compound 0.001 µM): -60%
- CXCL1 [pg/mL] Mean (compound 0.001 µM): 41 pg/mL
- CXCL2 % reduction (compound 0.001 µM): 22%
- CXCL2 [pg/mL] Mean (compound 0.001 µM): 25589 pg/mL
- MMP9 % reduction (compound 0.001 µM): -3.26%
- MMP9 [pg/mL] Mean (compound 0.001 µM): 993 pg/mL
- CXCL1 % reduction (compound 0.003 µM): -60%
- CXCL1 [pg/mL] Mean (compound 0.003 µM): 41 pg/mL
- CXCL2 % reduction (compound 0.003 µM): 22%
- CXCL2 [pg/mL] Mean (compound 0.003 µM): 25475 pg/mL
- MMP9 % reduction (compound 0.003 µM): 0.402%
- MMP9 [pg/mL] Mean (compound 0.003 µM): 960 pg/mL
- CXCL1 % reduction (compound 0.01 µM): -89%
- CXCL1 [pg/mL] Mean (compound 0.01 µM): 48 pg/mL
- CXCL2 % reduction (compound 0.01 µM): 23%
- CXCL2 [pg/mL] Mean (compound 0.01 µM): 24995 pg/mL
- MMP9 % reduction (compound 0.01 µM): -17%
- MMP9 [pg/mL] Mean (compound 0.01 µM): 1120 pg/mL
- CXCL1 [pg/mL] Mean (compound 0.03 µM): 66 pg/mL
- CXCL2 % reduction (compound 0.03 µM): 17%
- CXCL2 [pg/mL] Mean (compound 0.03 µM): 26915 pg/mL
- MMP9 % reduction (compound 0.03 µM): -7%
- MMP9 [pg/mL] Mean (compound 0.03 µM): 1030 pg/mL
- CXCL1 % reduction (compound 0.1 µM): -158%
- CXCL1 [pg/mL] Mean (compound 0.1 µM): 66 pg/mL
- CXCL2 % reduction (compound 0.1 µM): 23%
- CXCL2 [pg/mL] Mean (compound 0.1 µM): 25079 pg/mL
- MMP9 % reduction (compound 0.1 µM): -12%
- MMP9 [pg/mL] Mean (compound 0.1 µM): 1071 pg/mL
- CXCL1 % reduction (compound 0.3 µM): -170%
- CXCL1 [pg/mL] Mean (compound 0.3 µM): 69 pg/mL
- CXCL2 % reduction (compound 0.3 µM): 24%
- CXCL2 [pg/mL] Mean (compound 0.3 µM): 24836 pg/mL
- MMP9 % reduction (compound 0.3 µM): 4.75%
- MMP9 [pg/mL] Mean (compound 0.3 µM): 921 pg/mL
- CXCL1 % reduction (compound 1 µM): -156%
- CXCL1 [pg/mL] Mean (compound 1 µM): 66 pg/mL
- CXCL2 % reduction (compound 1 µM): 21%
- CXCL2 [pg/mL] Mean (compound 1 µM): 25750 pg/mL
- MMP9 % reduction (compound 1 µM): -12%
- MMP9 [pg/mL] Mean (compound 1 µM): 1077 pg/mL
- LPS-induced TNF-α, IL-6, and IL-1β in supernatant (J774.2 mouse macrophages, 0.0003-1 µM): dose-dependent reductions
- CCl2, % reduction (0.0003 µM): 30%
- CCl2, Mean (0.0003 µM): 25543 pg/mL
- IL-1β % reduction (0.0003 µM): -32%
- IL-6 % reduction (0.0003 µM): -12%
- TNF-α % reduction (0.0003 µM): -6.59%
- TNF-α Mean (0.0003 µM): 1457 pg/mL
- CCl2 (0.0003 µM): 25420.3 pg/mL and 25666.2 pg/mL
- CXCL1 (0.0003 µM): 47.7 pg/mL and 41.8 pg/mL
- TNF-α (0.0003 µM): 1400.2 pg/mL and 1513.9 pg/mL
- CCl2, % reduction (0.001 µM): 27%
- CCl2, Mean (0.001 µM): 26540 pg/mL
- IL-1β % reduction (0.001 µM): -9%
- IL-6 % reduction (0.001 µM): 2.11%
- TNF-α Mean (0.001 µM): 1347 pg/mL
- CCl2 (0.001 µM): 25719.1 pg/mL and 27360.7 pg/mL
- CXCL1 (0.001 µM): 36.1 pg/mL and 45.9 pg/mL
- TNF-α (0.001 µM): 1307.1 pg/mL and 1387.6 pg/mL
- CCl2, % reduction (0.003 µM): 17%
- CCl2, Mean (0.003 µM): 29971 pg/mL
- IL-1β % reduction (0.003 µM): 20%
- IL-6 % reduction (0.003 µM): -10%
- TNF-α % reduction (0.003 µM): 9%
- TNF-α Mean (0.003 µM): 1248 pg/mL
- CCl2 (0.003 µM): 29318.9 pg/mL and 30622.8 pg/mL
- CXCL1 (0.003 µM): 44.3 pg/mL and 37.5 pg/mL
- TNF-α (0.003 µM): 1276.5 pg/mL and 1220.4 pg/mL
- CCl2, % reduction (0.01 µM): 11%
- CCl2, Mean (0.01 µM): 32289 pg/mL
- IL-1β % reduction (0.01 µM): 44%
- IL-6 % reduction (0.01 µM): 16%
- TNF-α % reduction (0.01 µM): 16%
- TNF-α Mean (0.01 µM): 1149 pg/mL
- CCl2 (0.01 µM): 33314.7 pg/mL and 31263.9 pg/mL
- CXCL1 (0.01 µM): 53.3 pg/mL and 43.3 pg/mL
- TNF-α (0.01 µM): 1202.6 pg/mL and 1095.5 pg/mL
- CCl2, % reduction (0.03 µM): -11%
- CCl2, Mean (0.03 µM): 39841 pg/mL
- IL-1β % reduction (0.03 µM): 63%
- IL-6 % reduction (0.03 µM): 40%
- TNF-α % reduction (0.03 µM): 30%
- TNF-α Mean (0.03 µM): 960 pg/mL
- CCl2 (0.03 µM): 43664.9 pg/mL and 36017.7 pg/mL
- CXCL1 (0.03 µM): 62.3 pg/mL and 70.1 pg/mL
- TNF-α (0.03 µM): 997.7 pg/mL and 922.4 pg/mL
- CCl2, % reduction (0.1 µM): -6%
- CCl2, Mean (0.1 µM): 38142 pg/mL
- IL-1β % reduction (0.1 µM): 69%
- IL-6 % reduction (0.1 µM): 54%
- TNF-α % reduction (0.1 µM): 37%
- TNF-α Mean (0.1 µM): 868 pg/mL
- CCl2 (0.1 µM): 39902.2 pg/mL and 36382.1 pg/mL
- CXCL1 (0.1 µM): 70.5 pg/mL and 61.8 pg/mL
- TNF-α (0.1 µM): 957.1 pg/mL and 779.4 pg/mL
- CCl2, % reduction (0.3 µM): 15%
- CCl2, Mean (0.3 µM): 30843 pg/mL
- IL-1β % reduction (0.3 µM): 75%
- IL-6 % reduction (0.3 µM): 57%
- TNF-α % reduction (0.3 µM): 49%
- TNF-α Mean (0.3 µM): 706 pg/mL
- CCl2 (0.3 µM): 33366.7 pg/mL and 28320.1 pg/mL
- CXCL1 (0.3 µM): 70.8 pg/mL and 67.4 pg/mL
- TNF-α (0.3 µM): 780.3 pg/mL and 630.8 pg/mL
- CCl2, % reduction (1 µM): 14%
- CCl2, Mean (1 µM): 31213 pg/mL
- IL-1β % reduction (1 µM): 76%
- IL-6 % reduction (1 µM): 58%
- TNF-α % reduction (1 µM): 52%
- TNF-α Mean (1 µM): 671 pg/mL
- CCl2 (1 µM): 32973.4 pg/mL and 29452.4 pg/mL
- CXCL1 (1 µM): 65.4 pg/mL and 65.8 pg/mL
- TNF-α (1 µM): 708.1 pg/mL and 633.8 pg/mL
- CXCL2 (compound 0.0003 µM): 24204.6 pg/mL and 25664.1 pg/mL
- MMP9 (compound 0.0003 µM): 875.528 pg/mL and 1006.68 pg/mL
- CXCL2 (compound 0.001 µM): 24896.6 pg/mL and 26281.1 pg/mL
- MMP9 (compound 0.001 µM): 908.955 pg/mL and 1077.76 pg/mL
- CXCL2 (compound 0.003 µM): 26063.4 pg/mL and 24885.7 pg/mL
- MMP9 (compound 0.003 µM): 895.348 pg/mL and 1024.81 pg/mL
- CXCL2 (compound 0.01 µM): 24945.6 pg/mL and 25043.7 pg/mL
- MMP9 (compound 0.01 µM): 1078.2 pg/mL and 1162.43 pg/mL
- CXCL2 (compound 0.03 µM): 28314.6 pg/mL and 25515.2 pg/mL
- MMP9 (compound 0.03 µM): 1067.94 pg/mL and 991.656 pg/mL
- CXCL2 (compound 0.1 µM): 25553.8 pg/mL and 24603.6 pg/mL
- MMP9 (compound 0.1 µM): 1150.63 pg/mL and 991.656 pg/mL
- CXCL2 (compound 0.3 µM): 25702.8 pg/mL and 23968.8 pg/mL
- MMP9 (compound 0.3 µM): 877.422 pg/mL and 963.71 pg/mL
- CXCL2 (compound 1 µM): 26832.3 pg/mL and 24668.5 pg/mL
- MMP9 (compound 1 µM): 1055.41 pg/mL and 1099.09 pg/mL
